In publication PMC11740094, “Design and synthesis of cyclic lipidated peptides derived from the C-terminus of Cx43 for hemichannel inhibition and cardiac endothelium targeting” (RSC Medicinal Chemistry, 2024):
Read-outs that look alike come from different tables or passages of the source. Residues, ends and D or L forms follow the SMILES beside them. *: point of attachment. Palmitoyl = CCCCCCCCCCCCCCCC(=O)*

Columns and labels:
[1] = molecular target: T1, Cx43 HCs (B16-BL6 cells endogenously expressing Cx43) (Mus musculus, UniProt P23242); assay: ATP release assay in B16-BL6 cells, hemichannels opened by calcium depletion; type: cell-based, murine
T1 construct: a murine melanoma cell line endogenously expressing Cx43; endogenous in cells; host or cells: B16-BL6 mouse melanoma cells
Experimental: The inhibitory capacity of the peptides on connexin HC activity was determined in vitro by measuring ATP release triggered by a depletion of extracellular Ca^2+, hereafter called “calcium-free” condition.[60] The assays were performed on B16-BL6 cells, a murine melanoma cell line endogenously expressing Cx43.[61] To measure ATP release, B16-BL6 cells were rinsed with a physiological Hanks' balanced salt solution (HBSS; control) followed by incubation for 5 minutes in HBSS containing the peptides. After rinsing with calcium-free HBSS (Ca-free), the cells were incubated with Ca-free containing the peptides for 30 minutes. Positive and negative control conditions included 30 minute incubation with HBSS, Ca-free without peptides or Ca-free containing 25 μM of the non-selective small-molecule inhibitor Cbx. ATP release in the supernatant was measured by bioluminescence. In order to determine the optimal concentration of peptides to be used in the assays, an initial round of testing was conducted on the control peptides αCT1, Gap27,[62]Gap19 (ref. [15]) and TAT-Gap19 (ref. [15]) as well as Cbx.[63] A doubling of ATP release was observed 30 minutes after the switch to the calcium-free solution, indicating effective Cx43 HC channel opening under these conditions (Fig. 5a and Table S1 ^†). As expected, the nonspecific connexin HC inhibitor Cbx (25 μM) reduced calcium-free-induced ATP release to nearly control conditions. At a high concentration (100 μM), Gap19, Gap27 and αCT1 had minimal to no effect on ATP release while TAT-Gap19 had the opposite effect inducing the release of ATP to a similar extent as the detergent Triton X-100 (1%). This might be due to the presence of the CPP motif, causing some disturbance at the level of the cellular membrane, and correlated with the previous findings on the use of the peptide at high concentrations.[64,65] […]
ATP release assays were performed using previously described methods.[60] […] ATP release under each condition was expressed as the percentage of calcium-free-induced ATP release. […]

[2] = test system: parental HeLa cells (no endogenous connexins); assay: ATP release assay in parental HeLa cells (selectivity); type: cell-based, human; details: calcium-free conditions, N = 3
Text: (§1) Two cell types were chosen to assess the specificity of the Cx43 analogues. HeLa cells derived from human cervical cancer are the oldest and most commonly used immortalized cells. These cells are so-called communication-incompetent, i.e. known to not endogenously express connexins,[71] while SK-HEP-1 cells, a human liver sinusoid endothelial cell line, are devoid of Cx43 but express a small amount of Cx45.[72] Together with these parental cells, HeLa cells and SK-HEP-1 cells stably transfected with Cx43 were used (HeLa–Cx43 (ref. [73]) and SK-HEP-1–Cx43,[72] respectively). The presence and absence of Cx43 in the different cell lines were confirmed by Western blotting (Fig. 8a). The specificity of the control peptides Gap27, TAT-Gap19, αCT1 as well as the cyclic analogue 11 for Cx43 HCs was assessed through ATP release measurements in these pairs of cells, and is shown in Fig. 8b (and Table S4 ^†) for parental and HeLa–Cx43 cells and in Fig. 8c (and Table S5 ^†) for parental and SK-HEP-1–Cx43 cells. No induction of ATP release was observed when parental HeLa cells were exposed to calcium-free conditions. […] However, a doubling of ATP release was observed when parental SK-HEP-1 cells were exposed to calcium-free conditions, which was attenuated by the treatment with Cbx and all peptides, indicating an effect of the compounds on Cx45 HC. […] Nonetheless, the cardioprotective properties of αCT1 are generally ascribed to its interaction with the Cx43 protein,[23] thus it is reasonable to assume that these properties will be retained by the proteolytically stable 10 peptide.
(§2) ATP release assays were performed using previously described methods.[60] Briefly, B16-BL6 cells, HeLa cells or SK-HEP-1 cells were seeded into 96-well plates and grown until they reached confluence. […] The cells were then washed with calcium-free HBSS and incubated with aforementioned compounds in calcium-free HBSS for 30 minutes. Supernatants were collected and ATP bioluminescence measurements were performed using an ATP bioluminescence kit (Sigma-Aldrich) according to the manufacturer's instructions. ATP release under each condition was expressed as the percentage of calcium-free-induced ATP release. ATP release of cells incubated with HBSS was used as a control for basal ATP release. Triplicates were performed for each independent experiment.

[3] = molecular target: T2, Cx43 HCs (HeLa–Cx43 cells) (Homo sapiens, UniProt P17302); assay: ATP release assay in HeLa–Cx43 transfectants (selectivity); type: cell-based; details: for ATP release, mean (Table S4, Fig. 8b), HeLa-Cx43: calcium-free conditions, N = 3
T2 construct: expressed in transfected cells
Text: as §1, §2

[4] = molecular target: T3, Cx45 HC (parental SK-HEP-1 cells, devoid of Cx43) (Homo sapiens, UniProt P36383); assay: ATP release assay in parental SK-HEP-1 cells (selectivity); type: cell-based; details: calcium-free conditions, N = 3
T3 construct: are devoid of Cx43 but express a small amount of Cx45; endogenous in cells; host or cells: parental SK-HEP-1 cells
Text: as §1, §2

[5] = test system: Cx43 HCs (SK-HEP-1–Cx43 cells); assay: ATP release assay in SK-HEP-1–Cx43 transfectants (selectivity); type: cell-based, human; details: calcium-free conditions, N = 3
Text: as §1, §2

Cx43 HC = details: cited from earlier work
Experimental: The inhibitory capacity of the peptides on connexin HC activity was determined in vitro by measuring ATP release triggered by a depletion of extracellular Ca^2+, hereafter called “calcium-free” condition.[60] The assays were performed on B16-BL6 cells, a murine melanoma cell line endogenously expressing Cx43.[61] To measure ATP release, B16-BL6 cells were rinsed with a physiological Hanks' balanced salt solution (HBSS; control) followed by incubation for 5 minutes in HBSS containing the peptides. After rinsing with calcium-free HBSS (Ca-free), the cells were incubated with Ca-free containing t ...

physchem = type: physicochemical; details: water
cardiac endothelium = details: binding to markers on the cell surface of the cardiac endothelium; cited from earlier work
Text: To further increase the therapeutic potential of a drug candidate, targeted delivery to the organ or tissue of interest after systemic treatment is highly desirable. The use of homing peptides, i.e. peptides that selectively bind to markers expressed on the surface of different cell types, can increase the specificity and efficacy of drug delivery, while reducing the side effects linked to off-target interactions. A wide variety of peptides homing to different tissues and pathological conditions has been identified, mostly through phage-display techniques, and used as delivery vehicles for dru ...

[6] = design: method as in PMID 34063001; details: mouse serum; cited from earlier work
[7] = peptide applied extracellularly, read-out: IC50 on Cx43-mediated ATP release

T1 sequence (P23242 whole entry): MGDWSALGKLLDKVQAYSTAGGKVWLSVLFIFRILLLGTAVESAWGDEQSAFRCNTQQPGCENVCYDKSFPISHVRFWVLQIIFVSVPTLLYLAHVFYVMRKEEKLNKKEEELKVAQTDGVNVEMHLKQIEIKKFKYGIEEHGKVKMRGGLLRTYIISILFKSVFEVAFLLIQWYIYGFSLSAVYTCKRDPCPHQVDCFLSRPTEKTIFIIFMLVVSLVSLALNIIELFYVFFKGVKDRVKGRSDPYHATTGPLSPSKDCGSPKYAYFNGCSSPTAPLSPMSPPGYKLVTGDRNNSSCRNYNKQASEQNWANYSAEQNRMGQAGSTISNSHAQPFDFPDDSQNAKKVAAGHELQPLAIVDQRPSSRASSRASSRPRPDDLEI
T3 sequence (P36383 whole entry): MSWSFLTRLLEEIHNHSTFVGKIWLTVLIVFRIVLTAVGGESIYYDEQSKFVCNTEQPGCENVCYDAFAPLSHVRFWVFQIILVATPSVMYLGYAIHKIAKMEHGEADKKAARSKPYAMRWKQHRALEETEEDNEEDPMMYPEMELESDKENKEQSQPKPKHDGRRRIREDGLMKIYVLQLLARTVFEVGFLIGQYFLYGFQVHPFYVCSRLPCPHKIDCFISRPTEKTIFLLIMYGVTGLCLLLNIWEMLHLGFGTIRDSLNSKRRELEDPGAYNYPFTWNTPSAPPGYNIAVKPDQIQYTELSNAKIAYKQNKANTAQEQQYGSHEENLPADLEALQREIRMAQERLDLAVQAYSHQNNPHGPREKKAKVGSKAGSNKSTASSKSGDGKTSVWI
T2 sequence (P17302 whole entry): as the sequence (P23242 whole entry) above, with E124D, V164I, R243K, T251S, P253A, S257A, P263Q, S341N, A344S, V347L counted along it

Row | Compound | reduction of calcium-free-induced ATP release in HeLa–Cx43 cells ([3]; peptide 5 μM) | ATP release, mean (Table S4, Fig. 8b), HeLa-Cx43 ([3]; peptide 5 μM) [nM] | ATP release, mean (Table S5, Fig. 8c), Parental SK-HEP-1 ([4]; peptide 5 μM) [nM] | ATP release, mean (Table S4, Fig. 8b), Parental HeLa ([2]; peptide 5 μM) [nM] | ATP release, mean (Table S5, Fig. 8c), SK-HEP-1-Cx43 ([5]; peptide 5 μM) [nM] | also measured
1 | CC1(C)[C@@H](OC(=O)CCC(=O)O)CC[C@]2(C)[C@H]3C(=O)C=C4[C@@H]5C[C@@](C)(C(=O)O)CC[C@]5(C)CC[C@@]4(C)[C@]3(C)CC[C@@H]12 [Cbx, carbenoxolone] |  |  |  |  |  | ATP release, mean normalized to calcium-free condition (Table S2, Fig. 5b) ([1]; Cbx 25 μM, calcium-free 30 min, N = 3–9): 60.4766%; ATP release, mean normalized to calcium-free condition (Table S3, Fig. 6b) ([1]; Cbx 25 μM, calcium-free 30 min, N = 5–10): 78.1965%; ATP release, mean (Table S4, Fig. 8b), Parental HeLa ([2]; Cbx 25 μM): 0.9207 nM; inhibition of calcium-free-induced ATP release in HeLa–Cx43 cells (in words) ([3]; Cbx 25 μM): completely inhibited; ATP release, mean (Table S4, Fig. 8b), HeLa-Cx43 ([3]; Cbx 25 μM): 2.1867 nM; ATP release, mean (Table S5, Fig. 8c), Parental SK-HEP-1 ([4]; Cbx 25 μM): 13.9931 nM; ATP release, mean (Table S5, Fig. 8c), SK-HEP-1-Cx43 ([5]; Cbx 25 μM): 26.4826 nM
2 | CC[C@H](C)[C@H](NC(=O)[C@H](CCC(=O)O)NC(=O)[C@@H](NC(=O)[C@H](CCC(N)=O)NC(=O)[C@@H](N)CCCCN)[C@@H](C)CC)C(=O)N[C@@H](CCCCN)C(=O)N[C@@H](CCCCN)C(=O)N[C@@H](Cc1ccccc1)C(=O)N[C@@H](CCCCN)C(=O)O [Gap19, H-KQIEIKKFK-OH] (H-KQIEIKKFK-OH) |  |  |  |  |  | IC50 (Cx43 HC; intracellular application via whole-cell recording pipette, read-out: IC50 when applied intracellularly via a whole-cell recording pipette): 7 µM; IC50 (Cx43 HC; [7]): ~50 µM
3 | CCCCCCCCCCCCCCCC(=O)N[C@@H](CCCCN)C(=O)N[C@@H](CCC(N)=O)C(=O)N[C@H](C(=O)N[C@@H](CCC(=O)O)C(=O)N[C@H](C(=O)N[C@@H](CCCCN)C(=O)N[C@@H](CCCCN)C(=O)N[C@@H](Cc1ccccc1)C(=O)N[C@@H](CCCCN)C(=O)O)[C@@H](C)CC)[C@@H](C)CC [Palm-Gap19] (Palmitoyl-KQIEIKKFK-OH) |  |  |  |  |  | solubility (physchem): ≥ 100 µM
4 | CC[C@H](C)[C@H](NC(=O)[C@H](CCC(=O)O)NC(=O)[C@@H](NC(=O)[C@H](CCC(N)=O)NC(=O)[C@H](CCCCN)NC(=O)[C@H](CCCNC(=N)N)NC(=O)[C@H](CCCNC(=N)N)NC(=O)[C@H](CCCNC(=N)N)NC(=O)[C@H](CCC(N)=O)NC(=O)[C@H](CCCNC(=N)N)NC(=O)[C@H](CCCNC(=N)N)NC(=O)[C@H](CCCCN)NC(=O)[C@H](CCCCN)NC(=O)[C@H](CCCNC(=N)N)NC(=O)CNC(=O)[C@@H](N)Cc1ccc(O)cc1)[C@@H](C)CC)C(=O)N[C@@H](CCCCN)C(=O)N[C@@H](CCCCN)C(=O)N[C@@H](Cc1ccccc1)C(=O)N[C@@H](CCCCN)C(=O)O [TAT-Gap19] (H-YGRKKRRQRRRKQIEIKKFK-OH) | 40–45% | 10.9629 | 15.3639 | 1.3701 | 55.5511 | IC50 (Cx43 HC; [7]): 7 µM
5 | CRPPR [cardiac endothelium-homing pentapeptide] |  |  |  |  |  | selectivity of targeting the heart (cardiac endothelium): > 300 fold
6 | H-RPRPDDLEI-OH [αCT11] |  |  |  |  |  | time in which the peptide was found to be degraded [6]: 30 min
7 | Triton X-100 |  |  |  |  |  | ATP release, mean normalized to calcium-free condition (Table S1, Fig. 5a) ([1]; Triton X-100 1%, cell lysis control, N = 3–9): 248.6069%

Continued, in another order:

Row | reduction of calcium-free-induced ATP release in HeLa–Cx43 cells ([3]; peptide 5 μM) | ATP release, mean (Table S4, Fig. 8b), HeLa-Cx43 ([3]; peptide 5 μM) [nM] | ATP release, mean (Table S5, Fig. 8c), Parental SK-HEP-1 ([4]; peptide 5 μM) [nM] | Compound | ATP release, mean (Table S4, Fig. 8b), Parental HeLa ([2]; peptide 5 μM) [nM] | ATP release, mean (Table S5, Fig. 8c), SK-HEP-1-Cx43 ([5]; peptide 5 μM) [nM] | also measured
8 | 40–45% | 9.3690 | 8.5784 | CC[C@H](C)[C@H](NC(=O)[C@@H](NC(=O)[C@H](Cc1ccccc1)NC(=O)[C@@H](NC(=O)[C@@H](NC(=O)[C@H](CCCCN)NC(=O)[C@H](CCC(=O)O)NC(=O)[C@@H](NC(=O)[C@@H]1CCCN1C(=O)[C@H](CCCNC(=N)N)NC(=O)[C@@H](N)CO)[C@@H](C)O)[C@@H](C)O)[C@@H](C)CC)[C@@H](C)CC)C(=O)O [Gap27] (H-SRPTEKTIFII-OH) | 0.9529 | 36.9304 | 
9 | 40–45% | 8.7419 | 7.9522 | CC(=O)N[C@@H](CO)C(=O)N[C@@H](CCCNC(=N)N)C(=O)N1CCC[C@H]1C(=O)N[C@@H](CCCNC(=N)N)C(=O)N1C[C@@H]2C[C@H]1C(=O)N[C@@H](CC(=O)O)C(=O)N[C@@H](CC(=O)O)C(=O)N[C@@H](CC(C)C)C(=O)N[C@@H](CCC(=O)O)C(=O)N[C@H](C(N)=O)Cc1cn2nn1 [compound 11] | 1.5371 | 38.4712 | 
10 | 40–45% | 9.6282 | 6.6804 | H-RQPKIWFPNRRKPWKKRPRPDDLEI-OH [αCT1] | 1.6218 | 39.5655 | 
